Data reported in ChEMBL document CHEMBL5226379, “Hypouricemic Actions of the Pericarp of Mangosteen in Vitro and in Vivo” (J Nat Prod, 2023).
Activity calls are given as the source filed them. The rule behind the calls is not given here.

Tests used:
[1] = Toxicity in Kunming mouse assessed as decrease in serum uric acid level at 1 mg/kg; assay type: organism-based; details: in vivo
Mus musculus [2] = experiment: Hypouricemic activity in potassium oxonate-induced hyperuricemic Kunming mouse model assessed as decrease in serum XOD level at 1 mg/kg, IG pre-administered via gavage twice daily for 5 times followed by potassium oxonate injection for 1 hrs prior to last dose; assay type: functional, organism-based; details: time 5.0 day
[3] = biological target: Xanthine dehydrogenase/oxidase (Homo sapiens, UniProt P47989); experiment: Inhibition of XOD (unknown origin) using xanthine as substrate assessed as inhibition of uric acid generation at 0.54 mg/L preincubated for 15 mins followed by xanthine addition and measured by spectrophotometric analysis relative to control
Mus musculus [4] = experiment: (§1) Hypouricemic activity in potassium oxonate-induced hyperuricemic Kunming mouse model assessed as decrease in serum uric acid level at 5 mg/kg, IG pre-administered via gavage twice daily for 5 times followed by potassium oxonate injection for 1 hrs prior to last dose by phosphotungstic acid method; assay type: functional; details: for Activity: time 5.0 day
Mus musculus [5] = experiment: as §1, with “method relative to control” for “method”; assay type: functional; parameters: scale not given: the % may be the effect or the level left; details: time 5 day
Mus musculus [6] = experiment: Hypouricemic activity in potassium oxonate-induced hyperuricemic Kunming mouse model assessed as serum XDH level at 10 mg/kg, IG pre-administered via gavage twice daily for 5 times followed by potassium oxonate injection for 1 hrs prior to last dose; assay type: functional; details: time 5 day
Mus musculus [7] = experiment: Hypouricemic activity in potassium oxonate-induced hyperuricemic Kunming mouse model assessed as serum XOD level at 10 mg/kg, IG pre-administered via gavage twice daily for 5 times followed by potassium oxonate injection for 1 hrs prior to last dose; assay type: functional; details: time 5 day
Mus musculus [8] = experiment: Hypouricemic activity in potassium oxonate-induced hyperuricemic Kunming mouse model assessed as serum urate level at 10 mg/kg, IG pre-administered via gavage twice daily for 5 times followed by potassium oxonate injection for 1 hrs prior to last dose by phosphotungstic acid method; assay type: functional; details: time 5 day
Homo sapiens = species: Homo sapiens; experiment: Inhibition of uricase (unknown origin) using uric acid as substrate at 112.5 mg/L preincubated with compounds for 15 mins followed by uric acid addition
Rattus norvegicus [9] = experiment: (§2) Anti-hyperuricemic activity against potassium oxonate-induced hyperuricemic Sprague-Dawley rat model assessed as clearance of urate measured per body surface area of 0.0311 m2 at 12.5 mg/kg, po pre-administered via gavage twice daily for 5 times followed by potassium oxonate injection for 1 hrs prior to last dose and measured after 3 hrs; assay type: functional; details: time 123 hrs
Rattus norvegicus [10] = experiment: Anti-hyperuricemic activity against potassium oxonate-induced hyperuricemic Sprague-Dawley rat model assessed as fractional excretion of urate at 12.5 mg/kg, po pre-administered via gavage twice daily for 5 times followed by potassium oxonate injection for 1 hrs prior to last dose and measured after 3 hrs relative to control; assay type: functional; details: time 123 hrs
Rattus norvegicus [11] = experiment: (§3) Anti-hyperuricemic activity against potassium oxonate-induced hyperuricemic Sprague-Dawley rat model assessed as serum urate level at 12.5 mg/kg, po pre-administered via gavage twice daily for 5 times followed by potassium oxonate injection for 1 hrs prior to last dose and measured after 3 hrs; assay type: functional; details: time 123 hrs
Rattus norvegicus [12] = experiment: (§4) Anti-hyperuricemic activity against potassium oxonate-induced hyperuricemic Sprague-Dawley rat model assessed as urinary urate level at 12.5 mg/kg, po pre-administered via gavage twice daily for 5 times followed by potassium oxonate injection for 1 hrs prior to last dose and measured after 3 hrs; assay type: functional; details: time 123 hrs
Rattus norvegicus [13] = experiment: as §2, with “glomerular load” for “clearance”; assay type: functional; details: time 123 hrs
Mus musculus [14] = experiment: Anti-hyperouricemic activity in uric acid-induced hyperuricemic Kunming mouse model assessed as decrease in serum uric acid level at 25 mg/kg, IG pre-administered with uric acid for 30 mins followed by compound treatment and measured after 2 hrs by phosphotungstic acid method; assay type: functional, organism-based
Rattus norvegicus [15] = experiment: as §2, with “creatinine” for “urate”; assay type: functional; details: time 123 hrs
Rattus norvegicus [16] = experiment: as §4, with “creatinine” for “urate”; assay type: functional; details: time 123 hrs
Rattus norvegicus [17] = experiment: Anti-hyperuricemic activity against potassium oxonate-induced hyperuricemic Sprague-Dawley rat model assessed as serum creatinine level at 12.5 mg/kg, po pre-administered via gavage twice daily for 5 times followed by potassium oxonate injection for 1 hrs prior to last dose and measured after 3 hrs; assay type: functional; details: time 123 hrs
Rattus norvegicus [18] = experiment: Anti-hyperuricemic activity against potassium oxonate-induced hyperuricemic Sprague-Dawley rat model assessed as urine volume at 12.5 mg/kg, po pre-administered via gavage twice daily for 5 times followed by potassium oxonate injection for 1 hrs prior to last dose and measured after 3 hrs; assay type: functional; details: time 123 hrs
Rattus norvegicus [19] = experiment: as §3, with “urea nitrogen” for “urate”; assay type: functional; details: time 123 hrs
Rattus norvegicus [20] = experiment: Anti-hyperuricemic activity against potassium oxonate-induced hyperuricemic Sprague-Dawley rat model assessed as urinary urate at 12.5 mg/kg, po pre-administered via gavage twice daily for 5 times followed by potassium oxonate injection for 1 hrs prior to last dose and measured after 3 hrs; assay type: functional; details: time 123 hrs
Rattus norvegicus [21] = experiment: as §2, with “excretion” for “clearance”, “urate per volume of glomerular filtration” for “urate”; assay type: functional; details: time 123 hrs

Chain of Xanthine dehydrogenase/oxidase (P47989 whole entry): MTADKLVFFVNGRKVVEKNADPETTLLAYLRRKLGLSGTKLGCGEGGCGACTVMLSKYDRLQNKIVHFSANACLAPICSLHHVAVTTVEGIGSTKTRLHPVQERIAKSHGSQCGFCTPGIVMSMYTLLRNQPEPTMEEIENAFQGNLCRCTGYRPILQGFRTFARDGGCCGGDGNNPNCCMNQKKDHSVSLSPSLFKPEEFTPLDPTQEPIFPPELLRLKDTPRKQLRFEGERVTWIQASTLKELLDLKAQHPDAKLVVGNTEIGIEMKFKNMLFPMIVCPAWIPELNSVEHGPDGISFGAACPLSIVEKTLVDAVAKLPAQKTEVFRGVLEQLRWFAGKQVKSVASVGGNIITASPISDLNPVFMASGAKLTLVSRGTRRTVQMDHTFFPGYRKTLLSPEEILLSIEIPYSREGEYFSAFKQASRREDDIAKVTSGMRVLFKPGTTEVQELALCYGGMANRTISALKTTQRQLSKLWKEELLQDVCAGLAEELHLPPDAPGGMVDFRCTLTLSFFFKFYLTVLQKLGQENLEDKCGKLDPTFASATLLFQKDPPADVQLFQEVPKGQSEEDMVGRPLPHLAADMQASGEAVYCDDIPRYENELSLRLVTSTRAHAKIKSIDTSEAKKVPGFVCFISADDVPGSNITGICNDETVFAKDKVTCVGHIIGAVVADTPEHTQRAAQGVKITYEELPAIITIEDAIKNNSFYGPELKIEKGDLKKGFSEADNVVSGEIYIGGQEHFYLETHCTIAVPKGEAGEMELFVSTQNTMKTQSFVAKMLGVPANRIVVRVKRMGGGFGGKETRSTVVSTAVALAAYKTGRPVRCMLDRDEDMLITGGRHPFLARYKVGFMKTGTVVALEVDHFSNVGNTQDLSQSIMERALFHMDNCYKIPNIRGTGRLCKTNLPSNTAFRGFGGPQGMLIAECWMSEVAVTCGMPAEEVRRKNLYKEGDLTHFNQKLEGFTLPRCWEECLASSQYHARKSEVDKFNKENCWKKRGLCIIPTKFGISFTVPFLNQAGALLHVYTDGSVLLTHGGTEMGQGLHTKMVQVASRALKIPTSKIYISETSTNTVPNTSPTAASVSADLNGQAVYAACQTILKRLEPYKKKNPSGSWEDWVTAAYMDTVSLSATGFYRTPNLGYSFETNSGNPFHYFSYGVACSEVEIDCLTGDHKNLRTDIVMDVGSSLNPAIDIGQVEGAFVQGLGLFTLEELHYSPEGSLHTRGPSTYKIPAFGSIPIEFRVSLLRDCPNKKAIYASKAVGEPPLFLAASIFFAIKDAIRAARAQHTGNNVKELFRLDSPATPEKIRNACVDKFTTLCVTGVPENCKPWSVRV

In the case of `Cc1nc(-c2ccc(OCC(C)C)c(C#N)c2)sc1C(=O)O` [FEBUXOSTAT], the Activity [1] is reported as “Toxic” and the Activity (Mus musculus [2]) is reported as “Active”.

In the case of `Oc1ncnc2[nH]ncc12` [ALLOPURINOL], the inhibition at 0.54 µg/mL [3] is reported as 42.7%, the “serum uric acid level” value (Mus musculus [4]; time 5 day) is reported as 117.86 µmol/L and the Activity (Mus musculus [5]) is reported as 64%. The Activity (Mus musculus [6]) was 2.59 U/L, the Activity (Mus musculus [7]) was 11.46 U/L and the Activity (Mus musculus [8]) was 180.26 µmol/L.

In the case of `CC(C)=CCc1c(O)cc2oc3cc(O)c(O)c(CC=C(C)C)c3c(=O)c2c1O`, the Activity (Mus musculus [4]) is reported as “inactive”.

`O=C(O)c1nc(=O)[nH]c(=O)[nH]1` gave an inhibition (Homo sapiens) of 96.5%.

With `CCc1oc2ccccc2c1C(=O)c1cc(Br)c(O)c(Br)c1` [BENZBROMARONE] the Activity (Rattus norvegicus [9]) was 8.4 mL/min, the Activity (Rattus norvegicus [10]) was 66% and the Activity (Rattus norvegicus [11]) was 258 µmol/L. For the same molecule, the Activity (Rattus norvegicus [12]) was 2.7 mmol/L, the Activity (Rattus norvegicus [13]) was 3.8 µmol/min and the Activity (Mus musculus [14]) was “Active”. The Activity (Rattus norvegicus [15]) was 14.6 mL/min, the Activity (Rattus norvegicus [16]) was 1 mmol/L and the Activity (Rattus norvegicus [17]) was 56.1 µmol/L. It also gave an Activity (Rattus norvegicus [18]) of 4.6 mL, an Activity (Rattus norvegicus [19]) of 9.7 mmol/L and an Activity (Rattus norvegicus [20]) of 392 µmol. For the same molecule, the Activity (Rattus norvegicus [21]) was 5.3 µmol/L.

In the case of `COc1c(O)cc2oc3cc4c(c(O)c3c(=O)c2c1CC=C(C)C)C=CC(C)(C)O4`, the Activity (Mus musculus [4]) is reported as “inactive”.
